Measurements as given in ChEMBL document CHEMBL4507305, “Data for DCP probe TP-024” (2021).

Experiments:
[1] = biological target: Dual specificity protein kinase CLK2 (Homo sapiens) (UniProt P49760); conditions: Compound concentration 1000.0 nM
[2] = biological target: Mitogen-activated protein kinase 4 (Homo sapiens) (UniProt P31152); conditions: Compound concentration 1000.0 nM
[3] = biological target: Mitogen-activated protein kinase kinase kinase 20 (Homo sapiens) (UniProt Q9NYL2); conditions: Compound concentration 1000.0 nM
[4] = biological target: Cyclin-dependent kinase 18 (Homo sapiens) (UniProt Q07002); conditions: Compound concentration 1000.0 nM
[5] = biological target: BMP-2-inducible protein kinase (Homo sapiens) (UniProt Q9NSY1); conditions: Compound concentration 1000.0 nM
[6] = biological target: cAMP-dependent protein kinase catalytic subunit beta (Homo sapiens) (UniProt P22694); conditions: Compound concentration 1000.0 nM
[7] = biological target: MAP/microtubule affinity-regulating kinase 4 (Homo sapiens) (UniProt Q96L34); conditions: Compound concentration 1000.0 nM
[8] = biological target: Serine/threonine-protein kinase LATS2 (Homo sapiens) (UniProt Q9NRM7); conditions: Compound concentration 1000.0 nM
[9] = system: Tyrosine-protein kinase ABL1 (Homo sapiens), P00519 [T315I]; conditions: Compound concentration 1000.0 nM
[10] = biological target: Serine/threonine-protein kinase pim-2 (Homo sapiens) (UniProt Q9P1W9); conditions: Compound concentration 1000.0 nM
[11] = biological target: Macrophage-stimulating protein receptor (Homo sapiens) (UniProt Q04912); conditions: Compound concentration 1000.0 nM
[12] = biological target: Leukocyte tyrosine kinase receptor (Homo sapiens) (UniProt P29376); conditions: Compound concentration 1000.0 nM
[13] = biological target: Serine/threonine-protein kinase MARK2 (Homo sapiens) (UniProt Q7KZI7); conditions: Compound concentration 1000.0 nM
[14] = biological target: Interleukin-1 receptor-associated kinase 3 (Homo sapiens) (UniProt Q9Y616); conditions: Compound concentration 1000.0 nM
[15] = biological target: Calcium/calmodulin-dependent protein kinase type II subunit gamma (Homo sapiens) (UniProt Q13555); conditions: Compound concentration 1000.0 nM
[16] = biological target: Tyrosine-protein kinase ZAP-70 (Homo sapiens) (UniProt P43403); conditions: Compound concentration 1000.0 nM
[17] = biological target: Phosphatidylinositol 4,5-bisphosphate 3-kinase catalytic subunit gamma isoform (Homo sapiens) (UniProt P48736); conditions: Compound concentration 1000.0 nM
[18] = biological target: SNF-related serine/threonine-protein kinase (Homo sapiens) (UniProt Q9NRH2); conditions: Compound concentration 1000.0 nM
[19] = biological target: Phosphorylase b kinase regulatory subunit alpha, liver isoform (Homo sapiens) (UniProt P46019); conditions: Compound concentration 1000.0 nM
[20] = biological target: Calcium/calmodulin-dependent protein kinase kinase 1 (Homo sapiens) (UniProt Q8N5S9); conditions: Compound concentration 1000.0 nM
[21] = biological target: Tyrosine-protein kinase BTK (Homo sapiens) (UniProt Q06187); conditions: Compound concentration 1000.0 nM
[22] = biological target: SRSF protein kinase 2 (Homo sapiens) (UniProt P78362); conditions: Compound concentration 1000.0 nM
[23] = biological target: Serine/threonine-protein kinase N1 (Homo sapiens) (UniProt Q16512); conditions: Compound concentration 1000.0 nM
[24] = biological target: Mitogen-activated protein kinase kinase kinase 9 (Homo sapiens) (UniProt P80192); conditions: Compound concentration 1000.0 nM
[25] = biological target: Serine/threonine-protein kinase RIO3 (Homo sapiens) (UniProt O14730); conditions: Compound concentration 1000.0 nM
[26] = biological target: 5-hydroxytryptamine receptor 2C (Homo sapiens) (UniProt P28335); conditions: Compound concentration 10.0 uM
[27] = biological target: Serine/threonine-protein kinase PAK 2 (Homo sapiens) (UniProt Q13177); conditions: Compound concentration 1000.0 nM
[28] = biological target: Dual specificity tyrosine-phosphorylation-regulated kinase 1B (Homo sapiens) (UniProt Q9Y463); conditions: Compound concentration 1000.0 nM
[29] = biological target: Mitogen-activated protein kinase kinase kinase kinase 5 (Homo sapiens) (UniProt Q9Y4K4); conditions: Compound concentration 1000.0 nM
[30] = biological target: cAMP-dependent protein kinase catalytic subunit PRKX (Homo sapiens) (UniProt P51817); conditions: Compound concentration 1000.0 nM
[31] = biological target: Ephrin type-A receptor 1 (Homo sapiens) (UniProt P21709); conditions: Compound concentration 1000.0 nM
[32] = biological target: Receptor-interacting serine/threonine-protein kinase 4 (Homo sapiens) (UniProt P57078); conditions: Compound concentration 1000.0 nM
[33] = biological target: Serine/threonine-protein kinase BRSK2 (Homo sapiens) (UniProt Q8IWQ3); conditions: Compound concentration 1000.0 nM
[34] = biological target: Serine/threonine-protein kinase NLK (Homo sapiens) (UniProt Q9UBE8); conditions: Compound concentration 1000.0 nM
[35] = biological target: Ribosomal protein S6 kinase alpha-3 (Homo sapiens) (UniProt P51812); conditions: Compound concentration 1000.0 nM
[36] = system: Mast/stem cell growth factor receptor Kit (Homo sapiens), P10721 [D816H]; conditions: Compound concentration 1000.0 nM
[37] = biological target: Serine/threonine-protein kinase Nek3 (Homo sapiens) (UniProt P51956); conditions: Compound concentration 1000.0 nM
[38] = biological target: Serine/threonine-protein kinase WNK1 (Homo sapiens) (UniProt Q9H4A3); conditions: Compound concentration 1000.0 nM
[39] = biological target: Beta-adrenergic receptor kinase 1 (Homo sapiens) (UniProt P25098); conditions: Compound concentration 1000.0 nM
[40] = system: Phosphatidylinositol 4,5-bisphosphate 3-kinase catalytic subunit alpha isoform (Homo sapiens), P42336 [Q546K]; conditions: Compound concentration 1000.0 nM
[41] = biological target: Calcium/calmodulin-dependent protein kinase type II subunit delta (Homo sapiens) (UniProt Q13557); conditions: Compound concentration 1000.0 nM
[42] = biological target: Calcium/calmodulin-dependent protein kinase type II subunit alpha (Homo sapiens) (UniProt Q9UQM7); conditions: Compound concentration 1000.0 nM
[43] = biological target: TGF-beta receptor type-1 (Homo sapiens) (UniProt P36897); conditions: Compound concentration 1000.0 nM
[44] = biological target: Serine/threonine-protein kinase WNK2 (Homo sapiens) (UniProt Q9Y3S1); conditions: Compound concentration 1000.0 nM

Chain of Calcium/calmodulin-dependent protein kinase type II subunit delta (Homo sapiens) (Q13557 whole entry): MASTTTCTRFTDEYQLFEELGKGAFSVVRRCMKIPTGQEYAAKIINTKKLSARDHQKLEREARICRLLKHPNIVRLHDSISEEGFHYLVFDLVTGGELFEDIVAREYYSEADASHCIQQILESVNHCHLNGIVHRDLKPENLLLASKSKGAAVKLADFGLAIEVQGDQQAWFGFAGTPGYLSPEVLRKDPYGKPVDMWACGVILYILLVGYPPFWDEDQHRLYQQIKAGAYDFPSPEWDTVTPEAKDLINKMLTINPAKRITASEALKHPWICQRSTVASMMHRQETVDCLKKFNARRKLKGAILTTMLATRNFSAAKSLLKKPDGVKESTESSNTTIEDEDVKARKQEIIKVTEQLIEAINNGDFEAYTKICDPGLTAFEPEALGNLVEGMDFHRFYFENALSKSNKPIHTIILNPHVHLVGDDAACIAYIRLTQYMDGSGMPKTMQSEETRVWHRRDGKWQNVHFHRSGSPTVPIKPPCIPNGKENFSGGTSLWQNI
Chain of Mitogen-activated protein kinase kinase kinase kinase 5 (Homo sapiens) (Q9Y4K4 whole entry, looked up): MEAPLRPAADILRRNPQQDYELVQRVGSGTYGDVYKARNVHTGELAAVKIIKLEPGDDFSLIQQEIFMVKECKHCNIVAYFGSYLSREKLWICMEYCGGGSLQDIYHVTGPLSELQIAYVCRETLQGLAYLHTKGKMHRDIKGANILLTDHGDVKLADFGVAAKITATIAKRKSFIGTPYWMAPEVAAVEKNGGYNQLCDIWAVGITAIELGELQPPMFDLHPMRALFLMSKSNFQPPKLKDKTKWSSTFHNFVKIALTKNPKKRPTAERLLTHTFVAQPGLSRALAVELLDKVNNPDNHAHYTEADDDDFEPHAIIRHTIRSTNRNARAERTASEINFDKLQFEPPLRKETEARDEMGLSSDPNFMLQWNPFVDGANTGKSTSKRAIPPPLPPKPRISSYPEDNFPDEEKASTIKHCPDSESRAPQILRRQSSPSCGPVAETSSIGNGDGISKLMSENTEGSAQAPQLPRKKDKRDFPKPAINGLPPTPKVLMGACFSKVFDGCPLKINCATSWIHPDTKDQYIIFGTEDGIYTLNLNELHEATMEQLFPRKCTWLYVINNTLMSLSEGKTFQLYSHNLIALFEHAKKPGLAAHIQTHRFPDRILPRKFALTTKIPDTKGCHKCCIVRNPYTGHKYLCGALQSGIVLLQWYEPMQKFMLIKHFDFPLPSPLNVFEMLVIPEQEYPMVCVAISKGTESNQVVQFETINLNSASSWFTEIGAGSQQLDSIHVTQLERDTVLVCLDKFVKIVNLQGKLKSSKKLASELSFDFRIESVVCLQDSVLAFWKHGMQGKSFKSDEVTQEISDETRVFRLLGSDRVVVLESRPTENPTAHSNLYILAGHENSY
Chain of Tyrosine-protein kinase BTK (Homo sapiens) (Q06187 whole entry): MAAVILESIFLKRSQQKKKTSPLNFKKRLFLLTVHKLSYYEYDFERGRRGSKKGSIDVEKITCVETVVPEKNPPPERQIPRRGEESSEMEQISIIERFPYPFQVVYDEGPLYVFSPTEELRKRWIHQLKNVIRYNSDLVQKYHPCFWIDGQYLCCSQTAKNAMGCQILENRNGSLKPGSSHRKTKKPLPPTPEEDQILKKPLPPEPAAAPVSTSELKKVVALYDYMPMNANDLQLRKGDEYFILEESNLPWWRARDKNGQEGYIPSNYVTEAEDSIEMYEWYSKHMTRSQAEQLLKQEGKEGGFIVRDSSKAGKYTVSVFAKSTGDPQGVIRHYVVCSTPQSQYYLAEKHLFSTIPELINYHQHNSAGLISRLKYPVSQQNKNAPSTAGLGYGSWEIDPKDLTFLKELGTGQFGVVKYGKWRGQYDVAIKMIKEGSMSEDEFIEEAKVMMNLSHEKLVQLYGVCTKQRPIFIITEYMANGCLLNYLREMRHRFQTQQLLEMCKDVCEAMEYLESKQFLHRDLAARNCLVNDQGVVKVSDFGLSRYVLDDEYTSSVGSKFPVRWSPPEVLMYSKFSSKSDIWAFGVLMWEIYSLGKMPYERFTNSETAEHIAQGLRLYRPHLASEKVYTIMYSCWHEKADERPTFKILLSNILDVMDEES
Chain of Cyclin-dependent kinase 18 (Homo sapiens) (Q07002 whole entry): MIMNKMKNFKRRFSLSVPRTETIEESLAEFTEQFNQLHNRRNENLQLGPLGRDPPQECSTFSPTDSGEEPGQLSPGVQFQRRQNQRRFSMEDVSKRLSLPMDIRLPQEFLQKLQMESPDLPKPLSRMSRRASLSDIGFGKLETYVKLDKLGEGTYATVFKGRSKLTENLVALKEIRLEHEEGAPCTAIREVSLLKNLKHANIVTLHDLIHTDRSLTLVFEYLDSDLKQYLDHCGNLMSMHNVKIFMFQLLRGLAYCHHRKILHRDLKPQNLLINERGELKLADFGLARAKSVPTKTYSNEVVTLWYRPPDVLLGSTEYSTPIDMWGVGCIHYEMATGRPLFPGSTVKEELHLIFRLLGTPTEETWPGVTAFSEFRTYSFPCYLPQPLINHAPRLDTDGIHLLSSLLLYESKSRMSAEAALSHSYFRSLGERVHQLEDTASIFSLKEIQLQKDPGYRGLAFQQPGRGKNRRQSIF
Chain of Serine/threonine-protein kinase NLK (Homo sapiens) (Q9UBE8 whole entry): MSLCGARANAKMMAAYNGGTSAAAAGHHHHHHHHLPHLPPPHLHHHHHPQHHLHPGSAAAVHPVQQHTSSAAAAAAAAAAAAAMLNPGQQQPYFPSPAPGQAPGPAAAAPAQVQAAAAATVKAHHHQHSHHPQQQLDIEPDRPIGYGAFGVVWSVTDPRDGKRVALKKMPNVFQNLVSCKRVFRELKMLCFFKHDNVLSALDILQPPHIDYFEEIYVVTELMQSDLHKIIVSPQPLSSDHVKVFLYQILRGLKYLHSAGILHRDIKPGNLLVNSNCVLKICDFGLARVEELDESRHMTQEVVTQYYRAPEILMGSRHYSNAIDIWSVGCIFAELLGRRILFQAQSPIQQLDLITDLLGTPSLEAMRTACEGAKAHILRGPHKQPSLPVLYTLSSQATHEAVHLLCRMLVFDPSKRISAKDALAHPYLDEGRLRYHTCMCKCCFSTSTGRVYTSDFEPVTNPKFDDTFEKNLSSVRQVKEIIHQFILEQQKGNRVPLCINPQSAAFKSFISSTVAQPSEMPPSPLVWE
Chain of Serine/threonine-protein kinase PAK 2 (Homo sapiens) (Q13177 whole entry): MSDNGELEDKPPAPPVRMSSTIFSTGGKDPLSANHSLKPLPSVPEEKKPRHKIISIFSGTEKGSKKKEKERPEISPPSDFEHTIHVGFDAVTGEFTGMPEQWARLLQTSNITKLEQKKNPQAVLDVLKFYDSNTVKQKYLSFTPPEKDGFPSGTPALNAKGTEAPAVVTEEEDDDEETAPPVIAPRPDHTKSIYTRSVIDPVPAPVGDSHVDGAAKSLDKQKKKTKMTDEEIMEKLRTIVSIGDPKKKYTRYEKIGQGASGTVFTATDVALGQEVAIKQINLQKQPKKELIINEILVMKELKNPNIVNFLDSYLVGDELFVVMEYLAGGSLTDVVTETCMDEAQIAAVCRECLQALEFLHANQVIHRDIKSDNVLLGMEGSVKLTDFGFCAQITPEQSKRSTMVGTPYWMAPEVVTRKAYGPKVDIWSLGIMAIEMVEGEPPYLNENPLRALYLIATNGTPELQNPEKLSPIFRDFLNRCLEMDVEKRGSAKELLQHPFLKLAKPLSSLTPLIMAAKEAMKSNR
Chain of Ribosomal protein S6 kinase alpha-3 (Homo sapiens) (P51812 whole entry): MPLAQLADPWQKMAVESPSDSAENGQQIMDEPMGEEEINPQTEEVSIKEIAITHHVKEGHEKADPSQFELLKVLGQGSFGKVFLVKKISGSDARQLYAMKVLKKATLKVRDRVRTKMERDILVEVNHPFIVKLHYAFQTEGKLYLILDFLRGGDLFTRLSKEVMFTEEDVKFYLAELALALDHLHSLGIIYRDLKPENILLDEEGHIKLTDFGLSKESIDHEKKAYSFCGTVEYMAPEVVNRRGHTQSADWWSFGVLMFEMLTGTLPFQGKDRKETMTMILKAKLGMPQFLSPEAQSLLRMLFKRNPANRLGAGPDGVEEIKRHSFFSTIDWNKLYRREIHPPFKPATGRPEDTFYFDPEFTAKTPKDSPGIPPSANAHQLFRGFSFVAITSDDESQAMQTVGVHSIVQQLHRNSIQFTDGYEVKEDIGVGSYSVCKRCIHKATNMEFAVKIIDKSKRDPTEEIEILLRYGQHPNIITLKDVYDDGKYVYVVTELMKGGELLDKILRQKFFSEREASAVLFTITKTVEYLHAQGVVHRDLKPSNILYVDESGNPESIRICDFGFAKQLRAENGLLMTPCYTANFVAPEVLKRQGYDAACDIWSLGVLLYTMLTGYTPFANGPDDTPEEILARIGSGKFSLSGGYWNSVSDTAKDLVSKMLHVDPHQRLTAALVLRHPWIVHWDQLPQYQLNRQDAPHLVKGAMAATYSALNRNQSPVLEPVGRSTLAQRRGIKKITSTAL
Chain of Serine/threonine-protein kinase RIO3 (Homo sapiens) (O14730 whole entry): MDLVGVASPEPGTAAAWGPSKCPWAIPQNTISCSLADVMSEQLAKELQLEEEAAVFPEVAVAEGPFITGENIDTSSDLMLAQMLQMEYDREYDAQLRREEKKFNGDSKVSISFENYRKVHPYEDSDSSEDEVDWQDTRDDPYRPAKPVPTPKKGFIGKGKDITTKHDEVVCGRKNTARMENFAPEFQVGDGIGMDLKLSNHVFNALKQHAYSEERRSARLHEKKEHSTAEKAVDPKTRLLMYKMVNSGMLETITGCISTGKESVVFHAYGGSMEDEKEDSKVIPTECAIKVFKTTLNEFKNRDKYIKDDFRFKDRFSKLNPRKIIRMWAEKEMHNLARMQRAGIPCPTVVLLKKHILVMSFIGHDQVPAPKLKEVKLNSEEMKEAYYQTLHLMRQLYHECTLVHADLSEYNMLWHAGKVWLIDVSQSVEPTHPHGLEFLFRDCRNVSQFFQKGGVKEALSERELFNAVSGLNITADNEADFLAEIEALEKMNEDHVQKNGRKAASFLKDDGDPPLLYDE

Cc1cc(-n2nc(Cc3cc(F)cc(C(F)(F)F)c3)nc2C)ccc1C(N)=O [TP-024]
inactive: residual activity [1] 94% | residual activity [2] 100% | residual activity [3] 99% | residual activity [4] 100% | residual activity [5] 100% | residual activity [6] 100% | residual activity [7] 77% | residual activity [8] 100% | residual activity [9] 98% | residual activity [10] 83% | residual activity [11] 100% | residual activity [12] 100% | residual activity [13] 89% | residual activity [14] 100% | residual activity [15] 100% | residual activity [16] 82% | residual activity [17] 79% | residual activity [18] 100% | residual activity [19] 100% | residual activity [20] 100% | residual activity [21] 100% | residual activity [22] 100% | residual activity [23] 100% | residual activity [24] 100% | residual activity [25] 100% | inhibition [26] -5.34% | residual activity [27] 75% | residual activity [28] 100% | residual activity [29] 100% | residual activity [30] 100% | residual activity [31] 100% | residual activity [32] 95% | residual activity [33] 77% | residual activity [34] 100% | residual activity [35] 95% | residual activity [36] 100% | residual activity [37] 100% | residual activity [38] 100% | residual activity [39] 100% | residual activity [40] 76% | residual activity [41] 100% | residual activity [42] 99% | residual activity [43] 94% | residual activity [44] 100%

Cc1nc(Cc2cccc(C(F)(F)F)c2)sc1-c1ccc(C(N)=O)nc1 [TP-024n]
inactive: residual activity [1] 100% | residual activity [2] 100% | residual activity [3] 73% | residual activity [4] 100% | residual activity [5] 100% | residual activity [6] 92% | residual activity [7] 83% | residual activity [8] 90% | residual activity [9] 100% | residual activity [10] 64% | residual activity [11] 100% | residual activity [12] 100% | residual activity [13] 69% | residual activity [14] 100% | residual activity [15] 93% | residual activity [16] 93% | residual activity [17] 78% | residual activity [18] 84% | residual activity [19] 100% | residual activity [20] 98% | residual activity [21] 100% | residual activity [22] 100% | residual activity [23] 98% | residual activity [24] 100% | residual activity [25] 100% | inhibition [26] 0.93% | residual activity [27] 60% | residual activity [28] 100% | residual activity [29] 87% | residual activity [30] 100% | residual activity [31] 81% | residual activity [32] 83% | residual activity [33] 72% | residual activity [34] 100% | residual activity [35] 100% | residual activity [36] 100% | residual activity [37] 100% | residual activity [38] 100% | residual activity [39] 100% | residual activity [40] 86% | residual activity [41] 100% | residual activity [42] 91% | residual activity [43] 90% | residual activity [44] 100%
